Structures are written as SMILES. pIC50: −log10 of the molar value.

DNA-dependent protein kinase catalytic subunit, sequence (P78527 whole entry): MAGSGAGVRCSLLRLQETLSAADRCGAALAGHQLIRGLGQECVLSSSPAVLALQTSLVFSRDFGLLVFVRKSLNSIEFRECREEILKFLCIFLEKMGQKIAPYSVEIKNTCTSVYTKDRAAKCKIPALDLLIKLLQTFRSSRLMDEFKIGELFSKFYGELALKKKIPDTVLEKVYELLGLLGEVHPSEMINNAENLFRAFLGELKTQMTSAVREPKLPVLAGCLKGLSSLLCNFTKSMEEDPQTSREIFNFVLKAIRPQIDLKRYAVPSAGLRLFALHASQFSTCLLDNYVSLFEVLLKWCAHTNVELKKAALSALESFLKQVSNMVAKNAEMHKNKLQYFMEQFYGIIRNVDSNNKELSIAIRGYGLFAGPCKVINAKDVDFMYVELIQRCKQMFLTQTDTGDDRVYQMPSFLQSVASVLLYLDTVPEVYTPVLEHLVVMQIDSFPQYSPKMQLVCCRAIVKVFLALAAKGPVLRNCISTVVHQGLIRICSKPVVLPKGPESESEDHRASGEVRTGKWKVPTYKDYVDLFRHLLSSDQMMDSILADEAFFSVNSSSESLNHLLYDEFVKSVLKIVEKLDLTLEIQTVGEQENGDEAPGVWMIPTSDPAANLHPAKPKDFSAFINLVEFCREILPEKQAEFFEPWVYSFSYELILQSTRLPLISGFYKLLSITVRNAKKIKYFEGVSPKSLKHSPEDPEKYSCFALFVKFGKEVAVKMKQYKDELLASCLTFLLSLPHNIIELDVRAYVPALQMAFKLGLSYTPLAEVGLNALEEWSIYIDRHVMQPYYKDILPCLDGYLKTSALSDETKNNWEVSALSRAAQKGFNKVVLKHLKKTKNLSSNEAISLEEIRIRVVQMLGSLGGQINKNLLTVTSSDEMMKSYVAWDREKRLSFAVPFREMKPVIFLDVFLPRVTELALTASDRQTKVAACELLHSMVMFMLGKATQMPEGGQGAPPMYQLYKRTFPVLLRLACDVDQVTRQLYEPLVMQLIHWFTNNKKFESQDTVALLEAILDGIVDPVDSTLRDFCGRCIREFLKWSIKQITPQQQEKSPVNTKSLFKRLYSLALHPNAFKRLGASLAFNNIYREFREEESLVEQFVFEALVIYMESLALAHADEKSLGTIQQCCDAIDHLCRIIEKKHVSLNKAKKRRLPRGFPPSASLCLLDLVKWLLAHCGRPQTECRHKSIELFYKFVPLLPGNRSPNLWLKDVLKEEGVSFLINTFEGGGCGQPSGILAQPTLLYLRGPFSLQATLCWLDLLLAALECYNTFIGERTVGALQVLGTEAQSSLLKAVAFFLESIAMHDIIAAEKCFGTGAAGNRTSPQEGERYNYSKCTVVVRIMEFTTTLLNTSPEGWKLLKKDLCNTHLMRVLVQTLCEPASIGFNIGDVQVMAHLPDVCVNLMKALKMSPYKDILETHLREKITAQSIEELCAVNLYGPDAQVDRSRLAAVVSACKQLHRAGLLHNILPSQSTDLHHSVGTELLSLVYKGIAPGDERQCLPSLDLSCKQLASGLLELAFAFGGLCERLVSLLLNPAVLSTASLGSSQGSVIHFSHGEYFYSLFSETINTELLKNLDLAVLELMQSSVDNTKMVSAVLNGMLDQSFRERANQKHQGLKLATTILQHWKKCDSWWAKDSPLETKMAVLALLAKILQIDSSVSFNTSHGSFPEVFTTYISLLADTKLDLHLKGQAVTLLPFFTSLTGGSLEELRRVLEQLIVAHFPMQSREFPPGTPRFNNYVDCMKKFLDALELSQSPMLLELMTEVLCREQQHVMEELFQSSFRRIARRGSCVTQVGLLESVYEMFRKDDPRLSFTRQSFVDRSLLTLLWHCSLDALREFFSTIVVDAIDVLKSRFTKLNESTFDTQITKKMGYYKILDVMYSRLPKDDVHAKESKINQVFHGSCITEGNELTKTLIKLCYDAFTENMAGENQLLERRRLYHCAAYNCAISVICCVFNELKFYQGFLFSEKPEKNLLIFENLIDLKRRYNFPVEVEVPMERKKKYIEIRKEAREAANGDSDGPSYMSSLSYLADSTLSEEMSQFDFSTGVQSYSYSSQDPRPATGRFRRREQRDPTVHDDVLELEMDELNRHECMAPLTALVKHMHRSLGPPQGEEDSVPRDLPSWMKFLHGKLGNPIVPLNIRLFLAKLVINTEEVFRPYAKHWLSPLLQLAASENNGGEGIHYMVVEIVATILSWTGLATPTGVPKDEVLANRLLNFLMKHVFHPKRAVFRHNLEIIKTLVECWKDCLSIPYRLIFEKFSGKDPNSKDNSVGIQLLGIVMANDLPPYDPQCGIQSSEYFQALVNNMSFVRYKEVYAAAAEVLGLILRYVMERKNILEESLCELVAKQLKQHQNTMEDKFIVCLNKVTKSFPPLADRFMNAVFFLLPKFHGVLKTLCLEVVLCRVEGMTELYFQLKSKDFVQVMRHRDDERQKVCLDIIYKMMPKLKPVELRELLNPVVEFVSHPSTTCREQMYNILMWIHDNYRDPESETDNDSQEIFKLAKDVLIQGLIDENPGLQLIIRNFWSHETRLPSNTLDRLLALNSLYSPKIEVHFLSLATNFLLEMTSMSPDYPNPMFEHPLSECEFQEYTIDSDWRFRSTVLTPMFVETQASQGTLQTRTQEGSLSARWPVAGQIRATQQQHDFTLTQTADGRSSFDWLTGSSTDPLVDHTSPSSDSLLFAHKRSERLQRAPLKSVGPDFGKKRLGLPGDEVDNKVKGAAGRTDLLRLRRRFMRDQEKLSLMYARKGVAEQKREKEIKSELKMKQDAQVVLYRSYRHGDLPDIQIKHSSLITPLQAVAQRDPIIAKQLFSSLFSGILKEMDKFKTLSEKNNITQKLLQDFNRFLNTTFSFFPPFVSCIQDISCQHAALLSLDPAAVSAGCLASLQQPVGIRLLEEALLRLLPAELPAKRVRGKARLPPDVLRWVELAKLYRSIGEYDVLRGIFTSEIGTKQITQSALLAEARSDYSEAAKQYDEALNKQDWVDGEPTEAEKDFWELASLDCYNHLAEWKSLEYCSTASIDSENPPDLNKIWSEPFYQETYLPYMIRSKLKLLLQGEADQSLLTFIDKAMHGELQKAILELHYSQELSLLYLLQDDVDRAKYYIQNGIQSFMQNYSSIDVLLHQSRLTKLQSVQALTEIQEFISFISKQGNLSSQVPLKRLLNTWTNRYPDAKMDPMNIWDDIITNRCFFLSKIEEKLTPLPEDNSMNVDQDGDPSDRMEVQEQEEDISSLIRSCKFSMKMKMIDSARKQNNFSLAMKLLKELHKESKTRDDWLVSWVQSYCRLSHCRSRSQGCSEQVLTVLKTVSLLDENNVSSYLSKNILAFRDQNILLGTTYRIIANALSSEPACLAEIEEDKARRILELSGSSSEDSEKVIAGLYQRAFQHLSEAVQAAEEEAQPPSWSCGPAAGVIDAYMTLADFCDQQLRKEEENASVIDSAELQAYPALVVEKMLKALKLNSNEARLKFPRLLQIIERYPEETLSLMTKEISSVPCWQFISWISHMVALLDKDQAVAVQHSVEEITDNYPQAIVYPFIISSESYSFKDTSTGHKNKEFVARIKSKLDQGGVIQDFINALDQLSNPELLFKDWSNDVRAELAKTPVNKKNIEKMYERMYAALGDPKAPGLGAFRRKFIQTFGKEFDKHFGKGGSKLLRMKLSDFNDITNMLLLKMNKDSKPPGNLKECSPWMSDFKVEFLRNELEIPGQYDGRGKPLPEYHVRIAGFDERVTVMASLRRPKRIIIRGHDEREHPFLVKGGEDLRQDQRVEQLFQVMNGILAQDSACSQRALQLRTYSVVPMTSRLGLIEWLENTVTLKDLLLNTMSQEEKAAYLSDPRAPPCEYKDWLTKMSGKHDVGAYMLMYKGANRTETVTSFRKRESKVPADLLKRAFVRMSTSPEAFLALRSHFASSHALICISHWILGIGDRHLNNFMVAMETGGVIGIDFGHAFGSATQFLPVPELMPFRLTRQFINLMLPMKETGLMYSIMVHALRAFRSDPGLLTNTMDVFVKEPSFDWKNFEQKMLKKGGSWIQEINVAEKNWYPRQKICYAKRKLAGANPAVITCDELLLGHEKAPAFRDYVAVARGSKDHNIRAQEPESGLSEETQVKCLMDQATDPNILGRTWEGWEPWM

The assay has as its target DNA-dependent protein kinase catalytic subunit (Homo sapiens, UniProt P78527). Nature of the assay: Inhibition of DNA-dependent protein kinase (DNA-PK) of HeLa cell nuclear cell extract. It is filed as cell-free.
The compound `N#Cc1cc(-c2ccncc2)c(/C=N/N)nc1O` gave a pIC50 of 4.00.

Regarding `N#Cc1cc(-c2ccncc2)c(CO)nc1O`, the pIC50 was below 3.30. The compound `COc1ccc(COCc2nc(O)c(C#N)cc2-c2ccncc2)cc1` had a pIC50 below 3.30.

Turning to `O=c1cc(N2CCOCC2)oc2c(-c3ccccc3)cccc12` [LY-294002], the pIC50 is 5.85.

Values taken from ChEMBL document CHEMBL1133828, “Synthesis, crystal structure determination, and biological properties of the DNA-dependent protein kinase (DNA-PK) inhibitor 3-cyano-6-hydrazonomethyl-5-(4-pyridyl)pyrid-[1H]-2-one (OK-1035)” (Bioorg Med Chem Lett, 2001).
